US20210353579A1, “HIGH PENETRATION COMPOSITIONS AND USES THEREOF” (Techfields Pharma Co., Ltd., priority 2006, published 2021)
Counter-ions that a name gives are not always drawn.

Key:
[1] = tested on: cats with ocular hypertension; test: Intraocular pressure in cats with ocular hypertension; format: in vivo, cat; details: 30 mg/kg around the eye, 10 days
Method: The ability of diethylaminoethyl acetylsalicylate.HCl to reduce intraocular pressure (IOP) was evaluated in cats with ocular hypertension produced by previously done laser trabeculoplastry. IOP was determined with a pneumatonometer after light corneal anesthesia with dilute proparacaine. 14 Cats were divided into 2 groups. Baseline IOP was determined prior to treatment with the test compound aqueous solution. […] In group B, 30 mg/kg of diethylaminoethyl acetylsalicylate.HCl the area around eye (outside) of cat trice per day for 10 days.

Hypertension patients = test: Anti-hypertension effect of transdermal atenolol in patients; format: in vivo, human; details: 100 mg in 1 ml of pure water per day transdermally
Method: 20 Hypertension patents were divided to 2 groups. Group A is control group (n=10, 1 ml of water was administrated to the chest of patients once per day) and group B is atenolol treated group (n=10, 100 mg of atenolol HCl salt was administrated to the chest of patients once per day) (Table 32).

SMILES | anti-glaucoma activity [1] | blood pressure of hypertension patients (Hypertension patients)
CCN(CC)CCOC(=O)c1ccccc1OC(C)=O.Cl [Diethylaminoethyl acetylsalicylate.HCl, diethylaminoethyl acetylsalicylate.HCl] | very strong anti-glaucoma activity | 
CC(C)NCC(O)COc1ccc(CC(N)=O)cc1 (centres unmarked) [atenolol HCl salt, reference compound] |  | controlled
